Legend:
[1] = Solubility of gemcabene calcium salt Crystal Form 1 by solvent addition method; format: physicochemical
Description: Approximately 20 mg of gemcabene calcium Crystal Form 1 was added to 5×2 mL vials. The solubility in 5 solvents was tested using a solvent addition method. Solvents included acetone, ethanol, ethyl acetate, t-butyl methyl ether (t-BME) and water. Solvent was added in 5 volume (100 μL) aliquots until either dissolution or 2 mL in total had been added. Between each addition, samples were heated to 60° C. (40° C. for acetone and t-BME). Any solids remaining after 24 hours at ambient were analyzed by X-ray powder diffraction (XRPD).

[2] = test system: hepatic mRNA expression in STAM™ mice; test: Murine STAM model of NASH-HCC: hepatic gene expression by quantitative RT-PCR; format: in vivo, mouse; conditions: for TNF-α mRNA expression (relative, normalized to vehicle-treated normal group): mean±SD, vehicle STAM 3.6±1.0; for ADH-4 mRNA expression levels (relative): vehicle STAM 0.9±0.3; for CRP mRNA levels (relative): vehicle STAM 1.0±0.2; for NF-κB mRNA expression levels (relative): vehicle STAM 1.1±0.1; for MMP-2 mRNA expression levels (relative): vehicle STAM 1.9±0.7; for CCR2 mRNA expression levels (relative): vehicle STAM 3.5±1.7; for MCP-1 mRNA expression levels (relative): vehicle STAM 3.6±1.7; for Sulf-2 mRNA expression levels (relative): vehicle STAM 5.2±1.2; for MIP-1β mRNA levels (relative): vehicle STAM 5.6±2.0; for TIMP-1 mRNA expression (relative): vehicle STAM 12.9±9.0
Description: A study was performed to evaluate the efficacy of gemcabene calcium salt hydrate Crystal Form 1 having a PSD90 of 52 μm as measured by laser light diffraction, in treating non-alcoholic steatosis hepatitis (NASH) in the murine STAM™ model of NASH-HCC.
Briefly, two-day old neonatal C57BL/6 male mice were administered low-dose streptozotocin (STZ), and were subsequently fed a HFC diet from 4 weeks of age. In this model, the mice typically develop liver steatosis and diabetes, reaching steatohepatitis within 3 weeks, followed by cirrhosis within 8 weeks, and carcinoma within 16 weeks. In the current study, mice were administered daily oral gemcabene calcium salt hydrate Crystal Form 1 starting at week 6 of age and were sacrificed at week 9. Telmisartan (with antisteatotic, anti-inflammatory and antifibrotic effects in STAM™ mice) was used as a positive comparator. A baseline reference group was administered vehicle at day 2 of age, and from week 6 of age was vehicle-treated and chow-fed. Five STAM™ groups were streptozocin-treated at day 2 of age and fed a HFC-diet beginning with week 4 of age. These STAM™ groups were orally administered from week 6 one of the following: water-vehicle, gemcabene calcium salt hydrate Crystal Form 1 at 30, 100 and 300 mg/kg daily, or telmisartan ([…]®) 10 mg/kg daily. Telmisartan ([…]®) was purchased from Boehringer Ingelheim GmbH (Germany) and dissolved in pure water. All groups were sacrificed at week 9. Vehicle, gemcabene calcium salt hydrate Crystal Form 1, or telmisartan were administered by oral gavage once daily.
Various gene expression markers of liver metabolism were evaluated by Real-Time PCR (RT-PCR) in all mouse groups. Total RNA was extracted from liver samples using RNAiso (Takara Bio, Japan) according to the manufacturer's instructions. One μg of RNA was reverse-transcribed using a reaction mixture containing 4.4 mM MgCl2 (F. Hoffmann-La Roche, Switzerland), 40 U RNase inhibitor (Toyobo, Japan), 0.5 mM dNTP (Promega, USA), 6.28 μM random hexamer (Promega), 5× first strand buffer (Promega), 10 mM dithiothreitol (Invitrogen, USA) and 200 U MMLV-RT (Invitrogen) in a final volume of 20 μL. The reaction was carried out for 1 hour at 37° C., followed by 5 minutes at 99° C. Real-time PCR was performed using real-time PCR DICE and SYBR premix Taq (Takara Bio). To calculate the relative mRNA expression level, the expression of each gene was normalized to that of reference gene 36B4 (gene symbol: Rplp0). Information of PCR-primer sets is described in Tables 20A-20C. Statistical analyses were performed using the Bonferroni Multiple Comparison Test on GraphPad Prism 6 (GraphPad Software Inc., USA). P values <0.05 were considered statistically significant. Results are expressed as mean±SD.
In order to calculate the relative mRNA expression level, the expression of each gene was normalized to that of the reference gene 36B4 (gene symbol: Rplp0). The gene expression levels were measured by quantitative RT-PCR. Results were normalized with values for the vehicle-treated normal group. […] Gemcabene calcium salt hydrate Crystal Form 1 (PSD90=52 μm) modulated the mRNA expression of many hepatic genes that play a significant role in the liver homeostasis and injury.

## CC(C)(CCCCOCCCCC(C)(C)C(=O)[O-])C(=O)[O-].O.[Ca+2] [6-(5-Carboxy-5-methyl-hexyloxy)-2,2-dimethylhexanoic acid calcium (gemcabene calcium salt) hydrate Crystal Form 1]
[1]; /-Butyl Methyl Ether (t-BME)
  Solubility: <10000 µg/mL
[1]; Acetone
  Solubility: <10000 µg/mL
[1]; Ethanol
  Solubility: <10000 µg/mL
[1]; Ethyl Acetate
  Solubility: <10000 µg/mL
[1]; Water
  Solubility: 33000 µg/mL
[2]; gemcabene 100 mg/kg
  CCR5 mRNA expression levels (relative): 1.4±0.3
  TNF-α mRNA expression (relative, normalized to vehicle-treated normal group): 2.0±0.8
  ADH-4 mRNA expression levels (relative): 0.6±0.1
  CRP mRNA levels (relative): 0.6±0.1
  NF-κB mRNA expression levels (relative): 0.9±0.1
  MMP-2 mRNA expression levels (relative): 0.5±0.2
  CCR2 mRNA expression levels (relative): 1.6±0.4
  MCP-1 mRNA expression levels (relative): 1.7±0.7
  Sulf-2 mRNA expression levels (relative): 3.8±0.7
  MIP-1β mRNA levels (relative): 2.3±0.9
  TIMP-1 mRNA expression (relative): 3.8±1.6
[2]; gemcabene 100 mg/kg, telmisartan 10 mg/kg, vehicle STAM 0.9±0.2
  ACC-1 mRNA expression levels (relative): 0.7±0.1
[2]; gemcabene 300 mg/kg
  CCR5 mRNA expression levels (relative): 1.3±0.3
  TNF-α mRNA expression (relative, normalized to vehicle-treated normal group): 1.9±0.7
  ADH-4 mRNA expression levels (relative): 0.5±0.1
  CRP mRNA levels (relative): 0.5±0.1
  NF-κB mRNA expression levels (relative): 0.8±0.1
  MMP-2 mRNA expression levels (relative): 0.9±0.2
  CCR2 mRNA expression levels (relative): 1.7±0.7
  MCP-1 mRNA expression levels (relative): 1.6±0.7
  Sulf-2 mRNA expression levels (relative): 3.3±0.9
  MIP-1β mRNA levels (relative): 2.8±1.4
  TIMP-1 mRNA expression (relative): 4.4±2.1
